Test results published in patent publication US8039635B2, “N-hydroxy-4-{5-[4-(5-isopropyl-2-methyl-1,3-thiazol-4-yl) phenoxy]pentoxy} benzamidine 2 ethansulfonic acid salt, process for the preparation thereof and pharmaceutical composition comprising the same” (Dong Wha Pharmaceutical Co., Ltd., priority 2007, dated 2011).
Where a name gives a salt, the structure may show the parent alone.

Columns and labels:
[1] = Evaluation of solubility in solvents at room temperature; assay type: physicochemical
Excerpt: The N-hydroxy-4-{5-[4-(5-isopropyl-2-methyl-1,3-thiazol-4-yl)phenoxy]pentoxy}benzamidine 2 ethansulfonic acid salt prepared in Example 1, the N-hydroxy-4-{5-[4-(5-isopropyl-2-methyl-1,3-thiazol-4-yl)phenoxy]pentoxy}benzamidine prepared in Comparative Example 1, and the N-hydroxy-4-{5-[4-(5-isopropyl-2-methyl-1,3-thiazol-4-yl)phenoxy]pentoxy}benzamidine 2 methansulfonic acid salt prepared in Comparative Example 2 were examined for solubility (μg/ml) in various solvents at room temperature.

[2] = Evaluation of release rate in buffer solution (pH 1.2), paddle 50 rpm; assay type: physicochemical; details: for release rate: buffer pH 1.2, paddle 50 rpm
Excerpt: The N-hydroxy-4-{5-[4-(5-isopropyl-2-methyl-1,3-thiazol-4-yl)phenoxy]pentoxy}benzamidine 2 ethansulfonic acid salt prepared in Example 1, the N-hydroxy-4-{5-[4-(5-isopropyl-2-methyl-1,3-thiazol-4-yl)phenoxy]pentoxy}benzamidine prepared in Comparative Example 1, and the N-hydroxy-4-{5-[4-(5-isopropyl-2-methyl-1,3-thiazol-4-yl)phenoxy]pentoxy}benzamidine 2 methansulfonic acid salt prepared in Comparative Example 2 were examined for release rate (%) in a buffer solution (pH 1.2) at a paddle rotation speed of 50 rpm.

[3] = Pharmacokinetic evaluation (bioavailability) in SD rats; assay type: in vivo; details: 50 mg/kg
Description: The N-hydroxy-4-{5-[4-(5-isopropyl-2-methyl-1,3-thiazol-4-yl)phenoxy]pentoxy}benzamidine 2 ethansulfonic acid salt prepared in Example 1, and the N-hydroxy-4-{5-[4-(5-isopropyl-2-methyl-1,3-thiazol-4-yl)phenoxy]pentoxy}benzamidine 2 methansulfonic acid salt prepared in Comparative Example 2 were individually administered to SD rats in a dosage of 50 mg/kg. At given time points (0, 0.5, 1, 1.5, 2, 3, 5 and 8 hrs), rats were mildly anesthetized with diethyl ether, and blood samples were collected from the orbital venous plexus and stored at −20° C. until concentration analysis. The plasma samples were mixed with an equal volume of an internal standard substance solution (prepared by dissolving betamethasone in acetonitrile to give a final concentration of 30 μg/ml) with agitation for 1 min, and was centrifuged at 12,000 rpm for 10 min. Active components of the plasma samples were analyzed by HPLC (Model: Waters Module 1). From the obtained data, pharmacokinetic parameters [maximum blood concentration (Cmax) and area under the blood concentration-time curve (AUC)] were calculated by noncompartment analysis using the WinNonlin program (Version 1.0, Scientific Consulting Inc., USA).

[4] = Evaluation of stability under accelerated conditions, HPLC content; assay type: physicochemical; details: for change in content (stability in words): 60°C, 2 weeks; for Content: 60°C±2/75% RH±5, cap-opened vial
Description: The N-hydroxy-4-{5-[4-(5-isopropyl-2-methyl-1,3-thiazol-4-yl)phenoxy]pentoxy}benzamidine 2 ethansulfonic acid salt prepared in Example 1 was placed into a transparent glass vial, and stored at a cap-opened state under accelerated conditions (60° C.±2/75% RH±5) for a period of two weeks. Thereafter, the sample was analyzed by HPLC (Waters Module 1). The analysis was performed using a column packed with an octadecyl-silylated silica gel (Shiseido CAPCELL PAK C18, UG 120, Particle size 5 μm) under conditions: UV detection: 256 nm, injection volume: 10 μl, mobile-phase flow rate: 1.5 mL/min. The amount of the compound was calculated as an area percentage.

callus / bone fractures = details: rats, vs untreated control; cited from earlier work
ovalbumin-induced asthma = details: asthmatic mice, cited from earlier work
[5] = dose-dependent, vs control group

CS(=O)(=O)O.CS(=O)(=O)O.Cc1nc(-c2ccc(OCCCCCOc3ccc(C(=N)NO)cc3)cc2)c(C(C)C)s1 [2 Methansulfonic acid salt, N-hydroxy-4-{5-[4-(5-isopropyl-2-methyl-1,3-thiazol-4-yl)phenoxy]pentoxy}benzamidine 2 methansulfonic acid salt]
solubility ([1]; distilled water, room temperature): 3,535 μg/ml | release rate ([2]; 5 min): 5.3% | release rate ([2]; 10 min): 13.9% | release rate ([2]; 15 min): 20.1% | release rate ([2]; 30 min): 34.3% | AUC (area under the blood concentration-time curve) ([3]; SD rats): 8970 ± 3090 ng·h/mL | Cmax (maximum blood concentration) ([3]; SD rats): 1792 ± 912 ng/mL | Tmax (time to reach maximum plasma concentration) ([3]; SD rats): 3.00 ± 1.63 h

Cc1nc(-c2ccc(OCCCCCOc3ccc(C(=N)NO)cc3)cc2)c(C(C)C)s1 [2 Ethansulfonic acid salt, N-hydroxy-4-{5-[4-(5-isopropyl-2-methyl-1,3-thiazol-4-yl)phenoxy]pentoxy}benzamidine 2 ethansulfonic acid salt]
solubility ([1]; water): 4420 µg/mL | release rate ([2]; 5 min): 14.8% | release rate ([2]; 10 min): 20.5% | release rate ([2]; 15 min): 24.2% | release rate ([2]; 30 min): 31.3% | release rate, fold higher than 2 methanesulfonic acid salt ([2]; after 5 min): about 2.8 fold | release rate, fold higher than 2 methanesulfonic acid salt ([2]; after 10 min): about 1.4 fold | release rate, fold higher than 2 methanesulfonic acid salt ([2]; after 15 min): about 1.2 fold | change in content (stability in words) [4]: no change in content | change in content (stability in words) ([4]; listed as 2 ethanesulfonic acid salt): no change in its content | Content ([4]; after 1 week): 99.88% | Content ([4]; after 2 weeks): 99.86% | Content ([4]; early stage): 100.00% | AUC ([3]; SD, rat, in vivo): 10800 ± 833 ng·h/mL | AUC, fold higher than 2 methanesulfonic acid salt ([3]; SD, rat, in vivo): about 1.2 fold | Cmax ([3]; SD, rat, in vivo): 2360 ± 183 ng/mL | Cmax, fold higher than 2 methanesulfonic acid salt ([3]; SD, rat, in vivo): 1.3 fold | Tmax ([3]; SD, rat, in vivo): 2.13 ± 0.63 h | Tmax, fold faster than 2 methanesulfonic acid salt ([3]; SD, rat, in vivo): 1.4 fold

Cc1nc(-c2ccc(OCCCCCOc3ccc(C(=N)NO)cc3)cc2)c(C(C)C)s1 [free base, N-hydroxy-4-{5-[4-(5-isopropyl-2-methyl-1,3-thiazol-4-yl)phenoxy]pentoxy}benzamidine]
release rate ([2]; 5 min): 1.2% | release rate ([2]; 10 min): 3.5% | release rate ([2]; 15 min): 7.9% | release rate ([2]; 30 min): 21.3% | bone mineral content and mechanical strength of callus (callus / bone fractures): significantly enhanced | bone tissue density (callus / bone fractures): significantly increased | callus volume (callus / bone fractures): significantly reduced | content of connective and soft tissues in the callus tissue (callus / bone fractures): significantly reduced | number of eosinophils in bronchoalveolar lavage fluid (ovalbumin-induced asthma; [5]): significantly decreased | total number of leukocytes and number of eosinophils (peripheral blood) (ovalbumin-induced asthma; [5]): significantly decreased | increase in lung weight (ovalbumin-induced asthma; oral, 18 days, vs control given sterile distilled water): suppressed the increase in lung weight | alveolar area (ovalbumin-induced asthma; vs control group): significantly increased
